Test results as given in publication PMC4535766, “Antiprotozoal Activity Profiling of Approved Drugs: A Starting Point toward Drug Repositioning” (PLoS ONE, 2015).
Where a name gives a salt, the structure may show the parent alone. Read-outs that look alike come from different tables or passages of the source.

How the values were obtained:
[1] = tested on: intracellular amastigotes of L. donovani strain MHOM-ET-67/L82; test: Activity against Leishmania donovani intracellular amastigotes in mouse peritoneal macrophages; conditions: Leishmania donovani, Peritoneal macrophage, in Mus musculus
Procedure: After 24 h 1.2 x 10^5 amastigote L. donovani in 100 μl were added. The amastigotes were taken from an axenic culture grown at pH 5.4. Four hours later, the medium containing free amastigote forms was removed and replaced by fresh medium. The next day the medium was replaced by medium with or without a serial drug dilution of seven 3-fold dilution steps covering a range from 30 to 0.04 μg/ml. Parasite growth in the presence of the drug was compared to control wells. After 96 h of incubation, the medium was removed and the slides fixed with methanol for 10 min followed by staining with a 10% Giemsa solution. Infected and non-infected macrophages were counted for the control cultures and those exposed to the serial drug dilutions. The infection rates were determined. The results were expressed as a percentage reduction in parasite burden compared to control wells, and the IC50 was calculated by linear regression analysis. The collection of mouse peritoneal macrophages was done at the Swiss Tropical and Public Health Institute (Basel) according to the rules and regulations for the protection of animal rights ("Tierschutzverordnung") of the Swiss "Bundesamt für Veterinärwesen".

[2] = tested on: axenic amastigotes of L. donovani, strain MHOM-ET-67/L82; test: In vitro activity against L. donovani axenic amastigotes, serial drug dilution assay; format: cell-based, Leishmania donovani; conditions: Leishmania donovani
Procedure: (§1) Drug stock solutions (10mg/ml) were in DMSO (100%). […] Selectivity index (SI) was calculated as IC50 L6 cells/IC50 parasite.

[3] = tested on: T. cruzi, strain Tulahuen C4, intracellular amastigotes; test: microbe, parasite or virus in culture; conditions: Trypanosoma cruzi, TULAHUEN
Procedure: as §1

in vitro = conditions: rat
Procedure: as §1

[4] = tested on: T. b. rhodesiense strain STIB 900, trypomastigotes; test: In vitro activity against T. b. rhodesiense, serial drug dilution assay; conditions: for IC50: Trypanosoma brucei
Procedure: as §1

[5] = Cytotoxicity on macrophages infected with L. donovani; format: cell-based, mouse; conditions: mouse
P. falciparum strain K1 = test: In vitro activity against P. falciparum, serial drug dilution assay; conditions: for IC50: Plasmodium falciparum; for selectivity ratio: rat; for Activity against P. falciparum (in words): in vitro
Procedure: as §1

[6] = 96 h, read-out: IC50 L. don. intracell
[7] = axenic amastigotes, strain MHOM-ET-67/L82, means of two independent assays, read-out: IC50 L. don. axen.
[8] = macrophages infected with L. donovani, read-out: IC50 Cytotox. mac.inf.
[9] = read-out: L. don. intracell IC50
[10] = L. donovani axenic amastigotes, read-out: L. don. axen. IC50
[11] = L6 cells, IC50 Cytotox. L6, L6 cells, means of two independent assays
[12] = rat, L6 cells versus T. b. rhodesiense STIB 900 trypomastigotes
[13] = infected macrophages, read-out: Cytotox. mac.inf. IC50
[14] = mouse peritoneal macrophages infected with L. donovani, macrophages infected with L. donovani, read-out: IC50 Cytotox. mac.inf.
[15] = Selectivity index: IC50 Cytotoxicity L6/ IC50 P. falciparum

Row | Compound | IC50 [1, 6] [µM] | IC50 [2, 7] [µM] | IC50 ([3]; read-out: IC50 T. cruzi) [µM] | IC50 ([4]; read-out: IC50 T. b. rhod.) [µM] | IC50 at 96 h [5, 8] [µM] | IC50 (P. falciparum strain K1; K1, read-out: IC50 P. falc. K1) [µM] | IC50 (in vitro; IC50 Cytotox. L6) [µM] | further results
1 | CNCCC=C1c2ccccc2CCc2ccccc21 [Nortryptyline] | > 11.4 | > 342 | 22.9 | 1.17 | 38 | 0.58 |  | IC50 (in vitro): 27.9 µM; Selectivity index: IC50 Cytotoxicity L6/ IC50 T. b. rhodesiense ([4]; rat): 24; selectivity ratio ([4]; rat, Selectivity index: IC50 Cytotoxicity L6/ IC50 T. b. rhodesiense): > 20; selectivity ratio (P. falciparum strain K1): 48
2 | CN(C)CCCN1c2ccccc2Sc2ccc(C(F)(F)F)cc21 [Triflupromazine] |  |  |  | 1.42 |  |  |  | IC50 [1, 9]: > 8.51 µM; IC50 [2, 10]: 79.8 µM; IC50 ([3]; read-out: T. cruzi IC50): 15 µM; IC50 (in vitro; [11]): 18.5 µM; selectivity ratio [4, 12]: 13; MCC at 96 h [5, 13]: 28.4 µM; IC50 (P. falciparum strain K1; K1, read-out: P. falc. IC50): 2.72 µM
3 | OCCN(CCO)c1nc(N2CCCCC2)c2nc(N(CCO)CCO)nc(N3CCCCC3)c2n1 [Dipyridamole] | > 59.5 | 62 | 29.3 | 7.45 | > 59.5 | 1.3 | 38.6 | Activity against P. falciparum (in words) (P. falciparum strain K1): selective activities
4 | CCc1nc(N)nc(N)c1-c1ccc(Cl)cc1 [Pyrimethamine] | > 12.1 | 278 | 5.71 | 6.75 | > 12.1 | 9.85 | 2.51 | 
5 | CN1CCC(=C2c3ccccc3CCc3sccc32)CC1 [Pizotifen] | > 33.9 | 215 | 30.6 | 3.99 |  | 1.86 |  | IC50 (in vitro; [11]): 45 µM; selectivity ratio ([4]; rat): 11; IC50 at 96 h [5, 14]: > 102 µM
6 | CC(C)(C)NC(=O)[C@@H]1C[C@@H]2CCCC[C@@H]2CN1C[C@@H](O)[C@H](Cc1ccccc1)NC(=O)[C@H](CC(N)=O)NC(=O)c1ccc2ccccc2n1 [Saquinavir] | > 44.7 | 77.4 | 17.1 | 12.3 | > 44.7 | 11.9 | 18.2 | 
7 | COc1ccc(Cl)cc1C(=O)NCCc1ccc(S(=O)(=O)NC(=O)NC2CCCCC2)cc1 [Glybenclamide] |  |  |  |  |  |  |  | IC50 [1, 9]: > 60.7 µM; IC50 [2, 10]: 9.8 µM; IC50 ([3]; read-out: T. cruzi IC50): 93.9 µM; IC50 (in vitro): 116 µM; IC50 ([4]; read-out: T. b. rhod. IC50): 87.7 µM; IC50 at 96 h [5, 13]: > 60.7 µM; IC50 (P. falciparum strain K1; K1, read-out: P. falc. IC50): 38.3 µM
8 | Cc1cn([C@H]2C[C@H](N=[N+]=[N-])[C@@H](CO)O2)c(=O)[nH]c1=O [Zidovudine] | > 112 | > 374 | 156 | 140 | > 112 | 175 | 207 | 
9 | Nc1nc(O)c2ncn(COC(CO)CO)c2n1 [Ganciclovir] | > 118 | > 392 | 240 | 252 | > 118 | > 196 | 179 | 
10 | CO[C@H]1/C=C/O[C@@]2(C)Oc3c(C)c(O)c4c(c3C2=O)C2=NC3(CCN(CC(C)C)CC3)NC2=C(NC(=O)/C(C)=C\C=C\[C@H](C)[C@H](O)[C@@H](C)[C@@H](O)[C@@H](C)[C@H](OC(C)=O)[C@@H]1C)C4=O [Rifabutin] |  |  |  |  |  |  |  | IC50 [1, 9]: > 35.4 µM; IC50 [2, 10]: 56.4 µM; IC50 ([3]; read-out: T. cruzi IC50): 27.5 µM; IC50 (in vitro; Cytotox. L6 IC50): 60.9 µM; IC50 ([4]; read-out: T. b. rhod. IC50): 12.6 µM; Activity against T. b. rhodesiense (in words) ([4]; in vitro): devoid of antitrypanosomal activity; IC50 at 96 h [5, 13]: > 35.4 µM; IC50 (P. falciparum strain K1; K1, read-out: P. falc. IC50): 1.59 µM
11 | NC(=O)c1cccnc1 [Nicotinamide] | > 246 | > 737 | > 737 | > 737 | > 246 | > 40.9 | > 737 | 
12 | CC(=O)OCC(CCn1cnc2cnc(N)nc21)COC(C)=O [Famciclovir] | > 93.4 | > 311 | 207 | 225 | > 93.4 | > 156 | 180 | 
13 | Cc1nc2ccccn2c(=O)c1CCN1CCC(C(=O)c2ccc(F)cc2)CC1 [Pirenperone] | > 76.2 | 162 | 128 | 30 |  | 4.35 |  | IC50 (in vitro; [11]): 232 µM; IC50 at 96 h [5, 14]: > 76.2 µM
14 | C[C@@H](c1ncncc1F)[C@](O)(Cn1cncn1)c1ccc(F)cc1F [Voriconazole] | > 85.9 | > 286 | 11.2 | > 286 | > 85.9 | > 143 | 195 | 
15 | CC(C)CN(C[C@@H](O)[C@H](Cc1ccccc1)NC(=O)O[C@H]1CCOC1)S(=O)(=O)c1ccc(N)cc1 [Amprenavir] | > 59.3 | 113 | 105 | 28.5 | > 59.3 | 15.2 |  | IC50 (in vitro): 160 µM
16 | CC(=O)[C@H]1CC[C@H]2[C@@H]3CC[C@H]4C[C@](C)(O)CC[C@]4(C)[C@H]3CC[C@]12C [Ganaxolone] |  |  |  |  |  |  |  | IC50 [1, 9]: > 90.2 µM; IC50 [2, 10]: 42.5 µM; IC50 ([3]; read-out: T. cruzi IC50): 65 µM; IC50 (in vitro): 23.5 µM; IC50 ([4]; read-out: T. b. rhod. IC50): 5.47 µM; IC50 at 96 h [5, 13]: > 90.2 µM; IC50 (P. falciparum strain K1; K1, read-out: P. falc. IC50): > 15 µM
17 | CN(C)CCCN1c2ccccc2Sc2ccc(Cl)cc21 [Chlorpromazine] | > 9.41 | 48.5 | 17.2 | 1.25 | 31.4 | 3.03 | 12.3 | 
18 | OC(c1cc(C(F)(F)F)nc2c(C(F)(F)F)cccc12)C1CCCCN1 (centres unmarked) [Mefloquine (Hydrochloride), Mefloquine] |  |  |  |  |  | 0.002 | 3.25 | IC50 [1, 9]: 2.41 µM; IC50 [2, 10]: 38.6 µM; IC50 ([3]; read-out: T. cruzi IC50): 4.48 µM; IC50 ([4]; read-out: T. b. rhod. IC50): 0.53 µM; MCC at 96 h [5, 13]: 7.23 µM; IC50 (P. falciparum strain K1; K1, read-out: P. falc. IC50): 0.0024 µM; selectivity ratio (P. falciparum strain K1; [15]): 1350
19 | CC(N)C12CC3CC(CC(C3)C1)C2 (centres unmarked) [Rimantadine] | > 167 | 427 | 321 | 13.8 |  | 0.97 |  | IC50 (in vitro; [11]): 311 µM; selectivity ratio [4, 12]: 23; IC50 at 96 h [5, 14]: > 167 µM; Activity against P. falciparum (in words) (P. falciparum strain K1): selective activities; selectivity ratio (P. falciparum strain K1; [15]): 321
20 | Nc1ccc(S(=O)(=O)c2ccc(N)cc2)cc1 [Dapsone] | > 121 | > 403 | 220 | 353 | > 121 | 168 | 204 | 
